For experiment [1], the target named is T1, purified HIV proteinase (Human immunodeficiency virus type 1 group M subtype B, UniProt P04585).
T1 construct: purified HIV proteinase
The experiment is described as follows: biochemical. As to the method:
Representative compounds were tested for HIV protease activity in a spectrophotometric enzyme assay using the chromogenic substrate His-Lys-Ala-Arg-Val-Leu-p-nitro-Phe-Glu-Ala-Nle-Ser-amide and purified HIV proteinase. The rate of cleavage is followed by continuously registering the change in absorbance at 300 nm. […]

Experiment [2] concerns HIV-1. The experiment in a line: HIV-1 infected MT4 cell culture, XTT assay. It counts as cell-based. How it is done: Compounds are also tested for HIV protease activity in cell culture. MT4 cells grown in RPMI 1640 cell culture medium including 10% fetal calf serum are infected with 10 TCID HIV-1 per 2×10^5 cells and cultured for 6 days. XTT is added and the amount of XTT formazan produced in the following 6 hours represents the number of surviving cells. Results are expressed as the ED50, that is the concentration in μg/ml of the compound of the invention which suppresses viral replication by 50%.
On the technique in general: Tetrazolium dyes change colour on reduction, which living cells bring about.

[3] abbreviates: Human immunodeficiency virus 1, MT4, 144 h.
Setting [4] is: values in parentheses, affinity constant, read-out: (Ki μM).
The mark [5] stands for this setting: Human immunodeficiency virus 1, 144 h, second part of Table 1, head EC50, MT4 cells, HIV-1, 6 days, XTT, read-out: EC50.

The source of these data is patent US6489364B2, “Antiviral protease inhibitors” (priority 1997, dated 2002).

Values after ≈ are worked out from the molar mass of the structure shown. Read-outs that look alike come from different tables or passages of the source.

The term Ki denotes a dissociation constant, usually derived from enzyme kinetics or from competition with a known ligand. For orientation: EC50 means the concentration giving half of the maximal effect. For `CNC(=O)[C@@H](NC(=O)[C@H](OCc1ccc(/C=C/C(=O)OC)cc1)[C@H](O)[C@@H](O)[C@@H](OCc1ccc(/C=C/C(=O)OC)cc1)C(=O)N[C@H](C(=O)NC)C(C)C)C(C)C` [Example 31], in experiment [1], the inhibition constant (Ki) stood at 0.09 nM. In addition, the EC50 in experiment [2] (setting [3]) turned out to be 0.3 µg/mL (≈ 0.383 µM).
As for `CNC(=O)[C@@H](NC(=O)[C@H](OCc1ccc(-c2cccs2)cc1)[C@H](O)[C@@H](O)[C@@H](OCc1ccc(-c2cccs2)cc1)C(=O)N[C@H](C(=O)NC)C(C)C)C(C)C` [Example 25, N1,N6-di[(1S)-2-methyl-1-(methylcarbamoyl)propyl]-(2R,3R,4R,5R)-2,5-di[4-(2-thienyl)benzyloxy]-3,4-dihydroxyhexanediamide], the affinity in experiment [1], expressed as Ki, was 0.17 nM. The molecule further had an EC50 in experiment [2] (setting [3]) of 0.02 µg/mL (≈ 0.0257 µM).
Consider `CCOC1=C(c2ccc(CO[C@@H](C(=O)N[C@H](C(=O)NC)C(C)C)[C@H](O)[C@@H](O)[C@@H](OCc3ccc(C4=C(OCC)C(=O)CCC4)cc3)C(=O)N[C@H](C(=O)NC)C(C)C)cc2)CCCC1=O` [Example 32], for which, in experiment [1] (setting [4]), the inhibition constant (Ki) came to 0.3 nM. Besides, the EC50 in experiment [2] (setting [5]) is 0.2 µg/mL (≈ 0.224 µM).
The like results for `O=C(N[C@H]1c2ccccc2C[C@H]1O)[C@@H](C[C@@H](O)[C@@H](OCc1ccccc1)C(=O)N[C@H]1c2ccccc2C[C@H]1O)OCc1ccccc1` [Example 26, N1,N6-di[(1S,2R)-2-hydroxy-2,3-dihydro-1H-1-indenyl]-(2R,3R,5R)-2,5-di(benzyloxy)-3-hydroxyhexanediamide] were, in that order, 0.97 nM and 0.8 µg/mL (≈ 1.26 µM).
